The target of this experiment is human GHS-R 1a (Homo sapiens, UniProt Q92847). In words: GHS-R 1a receptor-ligand binding assay (membrane preparations from transfected LLC PK-1 cells). Also on record: expressed in transfected cells. As to conditions: displacement of 125I-His9-ghrelin; plasma membranes of LLC PK-1 cells transiently transfected with human GHS-R 1a; mean of at least two independent experiments in triplicates. As for the experimental part: II) GHS-R 1a Receptor-Ligand Binding Assay (Membrane Preparations from Transfected LLC PK-1 Cells)
human GHS-R 1a, sequence (Q92847 whole entry): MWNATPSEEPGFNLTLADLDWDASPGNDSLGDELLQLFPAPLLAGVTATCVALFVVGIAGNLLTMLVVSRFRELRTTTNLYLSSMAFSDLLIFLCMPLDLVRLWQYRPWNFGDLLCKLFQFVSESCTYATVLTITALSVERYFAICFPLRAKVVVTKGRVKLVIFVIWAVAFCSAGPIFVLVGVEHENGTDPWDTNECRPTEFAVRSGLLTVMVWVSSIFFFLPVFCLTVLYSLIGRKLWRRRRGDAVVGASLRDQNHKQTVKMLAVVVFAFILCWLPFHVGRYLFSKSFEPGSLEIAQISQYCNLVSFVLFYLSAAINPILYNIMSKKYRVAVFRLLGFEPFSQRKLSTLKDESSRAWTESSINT
The GHS-R 1a receptor binding/affinity studies were performed according to Guerlavais et al. (J. Med. Chem. 2003, 46: 1191-1203).
Isolated plasma membranes from LLC PK-1 cells, a renal epithelial cell line originally derived from porcine kidneys (ECACC No. 86121112) (10 μg of protein), that were transiently transfected with human GHS-R 1a cDNA (Guerlavais et al., J. Med. Chem. 2003, 46: 1191-1203), were incubated in homogenization buffer HB [50 mM Tris (pH 7.3), 5 mM MgCl2, 2.5 mM EDTA, and 30 μg/mL bacitracin (Sigma)] for 60 min at 25° C. (steady-state conditions) with […] ^125I-His^9-ghrelin (Amersham) in the presence or absence of competing compounds (compounds of the invention).
Nonspecific binding was defined using an excess (10^−6 M) of ghrelin. The binding reaction was stopped by addition of 4 mL of ice-cold HB followed by rapid filtration over Whatman GP/C filters presoaked with 0.5% polyethyleneimine to prevent excessive binding of radioligand to the filters. Filters were rinsed three times with 3 mL of icecold wash buffer [50 mM Tris (pH 7.3), 10 mM MgCl2, 2.5 mM EDTA, and 0.015% (w/v) X-100 Triton], and the radioactivity bound to membranes was measured in a gammacounter (Kontron Analytical Gamma Matic, Automatic gamma counting system).
The concentration of test compounds required to inhibit radiolabelled ghrelin binding by 50% (IC50) was determined by fitting competitive binding curves using non-linear regression (PRISM 3.0, Graph Pad San Diego, USA).
In the following table 2 results obtained for selected compounds of the invention are presented in comparison to an example of the prior art. IC50 values given are the mean of at least two independent experiments performed in triplicates.

In general, IC50 refers to the concentration at which inhibition is half-maximal. Read a low IC50 as inhibition by little substance. In turn, `O=C(N[C@H](Cc1c[nH]c2ccccc12)c1nnc(Cc2ccccc2)n1Cc1ccc(Cl)c(Cl)c1)c1cnccn1` [Compound 38, N-((R)-1-(4-(3,4-dichlorobenzyl)-5-benzyl-4H-1,2,4-triazol-3-yl)-2-(1H-indol-3-yl)ethyl)pyrazine-2-carboxamide] displayed an IC50 of 430 nM.

Take `O=C(Cc1ccccn1)N[C@H](Cc1c[nH]c2ccccc12)c1nnc(CCCc2c[nH]c3ccccc23)n1Cc1cccc2ccccc12` [Compound 40, N-((R)-1-(5-(3-(1H-indol-3-yl)propyl)-4-((naphthalen-1-yl)methyl)-4H-1,2,4-triazol-3-yl)-2-(1H-indol-3-yl)ethyl)-2-(pyridin-2-yl)acetamide]: the IC50 stood at 20.9 nM. Against the preceding compound, the IC50 is about 21-fold lower.

In turn, `O=C(N[C@H](Cc1c[nH]c2ccccc12)c1nnc(CCCc2c[nH]c3ccccc23)n1Cc1cccc2ccccc12)c1ccccn1` [Compound 45, N-((R)-1-(5-(3-(1H-indol-3-yl)propyl)-4-((naphthalen-1-yl)methyl)-4H-1,2,4-triazol-3-yl)-2-(1H-indol-3-yl)ethyl)picolinamide] displayed an IC50 of 29 nM. This IC50 and that of the compound before are within 1.5-fold of each other.

Consider `O=C(N[C@H](Cc1c[nH]c2ccccc12)c1nnc(CCCc2c[nH]c3ccccc23)n1Cc1cccc2ccccc12)C1CCOCC1` [Compound 46, N-((R)-1-(5-(3-(1H-indol-3-yl)propyl)-4-((naphthalen-1-yl)methyl)-4H-1,2,4-triazol-3-yl)-2-(1H-indol-3-yl)ethyl)-tetrahydro-2H-pyran-4-carboxamide], for which the IC50 turned out to be 143 nM.

In the case of `O=C(Cc1ccccn1)N[C@H](Cc1c[nH]c2ccccc12)c1nnc(CCc2ccccc2)n1Cc1cccc2ccccc12` [Compound 50, N-((R)-2-(1H-indol-3-yl)-1-(4-((naphthalen-1-yl)methyl)-5-phenethyl-4H-1,2,4-triazol-3-yl)ethyl)-2-(pyridin-2-yl)acetamide], the IC50 was found to be 107 nM.

In turn, `O=C(N[C@H](Cc1c[nH]c2ccccc12)c1nnc(CCCc2c[nH]c3ccccc23)n1Cc1cccc2ccccc12)c1cnccn1` [Compound 51, N-((R)-1-(5-(3-(1H-indol-3-yl)propyl)-4-((naphthalen-1-yl)methyl)-4H-1,2,4-triazol-3-yl)-2-(1H-indol-3-yl)ethyl)pyrazine-2-carboxamide] displayed an IC50 of 107 nM.

In turn, `O=C(Cc1ccccn1)N[C@H](Cc1c[nH]c2ccccc12)c1nnc(CCc2c[nH]c3ccccc23)n1Cc1ccc(Cl)c(Cl)c1` [Compound 52, N-((R)-1-(5-(2-(1H-indol-3-yl)ethyl)-4-(3,4-dichlorobenzyl)-4H-1,2,4-triazol-3-yl)-2-(1H-indol-3-yl)ethyl)-2-(pyridin-2-yl)acetamide] returned an IC50 of 48 nM. This IC50 is about 2.2-fold lower than that of the compound before.

Compound `O=C(N[C@H](Cc1c[nH]c2ccccc12)c1nnc(CCc2c[nH]c3ccccc23)n1Cc1ccc(Cl)c(Cl)c1)C1CCCN1` (stereo partly drawn) [Compound 53, N-((R)-1-(5-(2-(1H-indol-3-yl)ethyl)-4-(3,4-dichlorobenzyl)-4H-1,2,4-triazol-3-yl)-2-(1H-indol-3-yl)ethyl)pyrrolidine-2-carboxamide] showed an IC50 of 158 nM.

The compound `COc1ccc(Cn2c(CCc3ccccc3)nnc2[C@@H](Cc2ccc3ccccc3c2)NC(=O)C2CCNCC2)cc1` [Compound 54, N-((R)-1-(4-(4-methoxybenzyl)-5-phenethyl-4H-1,2,4-triazol-3-yl)-2-(naphthalen-2-yl)ethyl)piperidine-4-carboxamide] gave an IC50 of 0.3 nM.

`COc1ccc(Cn2c(CCc3ccccc3)nnc2[C@@H](Cc2ccc3ccccc3c2)NC(=O)C(C)(C)N)cc1` [Compound 55, N-((R)-1-(4-(4-methoxybenzyl)-5-phenethyl-4H-1,2,4-triazol-3-yl)-2-(naphthalen-2-yl)ethyl)-2-amino-2-methylpropanamide] returned an IC50 of 13.7 nM.

Compound `COc1ccc(Cn2c(CCc3ccccc3)nnc2[C@@H](Cc2ccc3ccccc3c2)NC(=O)c2ccccn2)cc1` [Compound 57, N-((R)-1-(4-(4-methoxybenzyl)-5-phenethyl-4H-1,2,4-triazol-3-yl)-2-(naphthalen-2-yl)ethyl)picolinamide] returned an IC50 of 0.7 nM.

As for `COc1ccc(Cn2c(CCc3c[nH]c4ccccc34)nnc2[C@@H](Cc2ccc3ccccc3c2)NC(=O)c2ccccn2)cc1` [Compound 58, N-((R)-1-(5-(2-(1H-indol-3-yl)ethyl)-4-(4-methoxybenzyl)-4H-1,2,4-triazol-3-yl)-2-(naphthalen-2-yl)ethyl)picolinamide], the IC50 is 1 nM.

For `COc1ccc(Cn2c(CCc3ccccc3)nnc2[C@@H](Cc2ccc3ccccc3c2)NC(=O)C2CCCN2)cc1` (stereo partly drawn) [Compound 59, N-((R)-1-(4-(4-methoxybenzyl)-5-phenethyl-4H-1,2,4-triazol-3-yl)-2-(naphthalen-2-yl)ethyl)pyrrolidine-2-carboxamide], the IC50 is 27.8 nM.

With `O=C(N[C@H](Cc1c[nH]c2ccccc12)c1nnc(CCc2ccccc2)n1CCc1ccccc1)C1CCCCC1` [Compound 62, N-((R)-2-(1H-indol-3-yl)-1-(4,5-diphenethyl-4H-1,2,4-triazol-3-yl)ethyl)cyclohexane-carboxamide], the IC50 came out at 707 nM. This IC50 lies about 25-fold higher than the previous one.

On to `O=C(N[C@H](Cc1c[nH]c2ccccc12)c1nnc(CCc2ccccc2)n1CCc1ccccc1)c1ccccc1` [Compound 63, N-((R)-2-(1H-indol-3-yl)-1-(4,5-diphenethyl-4H-1,2,4-triazol-3-yl)ethyl)benzamide], for which the IC50 was found to be 535 nM.

Consider `O=C(N[C@H](Cc1c[nH]c2ccccc12)c1nnc(CCc2ccccc2)n1CCc1ccccc1)c1ccccn1` [Compound 64, N-((R)-2-(1H-indol-3-yl)-1-(4,5-diphenethyl-4H-1,2,4-triazol-3-yl)ethyl)picolinamide], for which the IC50 worked out at 198 nM.

Regarding `O=C(N[C@H](Cc1c[nH]c2ccccc12)c1nnc(CCc2ccccc2)n1CCc1ccccc1)c1cnccn1` [Compound 66, N-((R)-2-(1H-indol-3-yl)-1-(4,5-diphenethyl-4H-1,2,4-triazol-3-yl)ethyl)pyrazine-2-carboxamide], the IC50 worked out at 825 nM.

Turning to `NCCCC(=O)N[C@H](Cc1c[nH]c2ccccc12)c1nnc(CCc2c[nH]c3ccccc23)n1Cc1cccc2ccccc12` [Compound 67, N-((R)-1-(5-(2-(1H-indol-3-yl)ethyl)-4-((naphthalen-1-yl)methyl)-4H-1,2,4-triazol-3-yl)-2-(1H-indol-3-yl)ethyl)-4-aminobutanamide], the IC50 turned out to be 0.27 nM.

The compound `NCCCC(=O)N[C@H](Cc1c[nH]c2ccccc12)c1nnc(CCc2ccccc2)n1Cc1cccc2ccccc12` [Compound 68, N-((R)-2-(1H-indol-3-yl)-1-(4-((naphthalen-1-yl)methyl)-5-phenethyl-4H-1,2,4-triazol-3-yl)ethyl)-4-aminobutanamide] showed an IC50 of 182 nM.

`NCCCC(=O)N[C@H](Cc1c[nH]c2ccccc12)c1nnc(CCCc2c[nH]c3ccccc23)n1Cc1cccc2ccccc12` [Compound 69, N-((R)-1-(5-(3-(1H-indol-3-yl)propyl)-4-((naphthalen-1-yl)methyl)-4H-1,2,4-triazol-3-yl)-2-(1H-indol-3-yl)ethyl)-4-aminobutanamide] registered an IC50 of 126 nM. This IC50 and that of the compound before are within 1.5-fold of each other.

Take `O=C(N[C@H](Cc1c[nH]c2ccccc12)c1nnc(CCc2ccccc2)n1CCc1ccccc1)C1CCNCC1` [Compound 71, N-((R)-2-(1H-indol-3-yl)-1-(4,5-diphenethyl-4H-1,2,4-triazol-3-yl)ethyl)piperidine-4-carboxamide]: the IC50 worked out at 92 nM.

On to `CC(C)(N)C(=O)N[C@H](Cc1c[nH]c2ccccc12)c1nnc(CCc2ccccc2)n1Cc1ccc(-c2ccccc2)cc1` [Compound 73, 2-amino-N-((R)-1-(4-(4-phenylbenzyl)-5-phenethyl-4H-1,2,4-triazol-3-yl)-2-(1H-indol-3-yl)ethyl)-2-methylpropanamide], for which the IC50 came out at 150 nM.

In turn, `O=C(N[C@H](Cc1c[nH]c2ccccc12)c1nnc(CCc2ccccc2)n1Cc1ccc(-c2ccccc2)cc1)C1CCNCC1` [Compound 74, N-((R)-1-(4-(4-phenylbenzyl)-5-phenethyl-4H-1,2,4-triazol-3-yl)-2-(1H-indol-3-yl)ethyl)piperidine-4-carboxamide] gave an IC50 of 95 nM.

The compound `COc1ccc(Cn2c(CCc3ccccc3)nnc2[C@@H](Cc2cccc3ccccc23)NC(=O)C(C)(C)N)cc1` [Compound 77, N-((R)-1-(4-(4-methoxybenzyl)-5-phenethyl-4H-1,2,4-triazol-3-yl)-2-(naphthalen-1-yl)ethyl)-2-amino-2-methylpropanamide] had an IC50 of 12.3 nM.

In turn, `COc1ccc(Cn2c(CCc3ccccc3)nnc2[C@@H](Cc2cccc3ccccc23)NC(=O)C2CCNCC2)cc1` [Compound 78, N-((R)-1-(4-(4-methoxybenzyl)-5-phenethyl-4H-1,2,4-triazol-3-yl)-2-(naphthalen-1-yl)ethyl)piperidine-4-carboxamide] displayed an IC50 of 2.2 nM.

The values are drawn from patent publication US20090239877A1, “NOVEL 1,2,4-TRIAZOLE DERIVATIVES AND PROCESS OF MANUFACTURING THEREOF” (AETERNA ZENTARIS GmbH, priority 2008, published 2009).
